Measurements published in PubChem BioAssay (NCI).
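All cell lines were grown in 96-well plates and treated with compound for 48 hours. TGI is the concentration that stops growth completely.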

Legend:
Experiment in all cases: NCI tumour cell line growth inhibition, 48 h
KM20L2 colon = test system: KM20L2 colon
DLD-1 colon = test system: DLD-1 colon
SK-MEL-2 melanoma = test system: SK-MEL-2 melanoma
LXFL 529 NSCLC = test system: LXFL 529 NSCLC
M19-MEL melanoma = test system: M19-MEL melanoma
SR leukemia = test system: SR leukemia
M14 melanoma = test system: M14 melanoma
NCI-H23 lung = test system: NCI-H23 lung
LOX IMVI melanoma = test system: LOX IMVI melanoma
DMS 114 small cell lung = test system: DMS 114 small cell lung
OVCAR-8 ovarian = test system: OVCAR-8 ovarian
RXF-631 renal = test system: RXF-631 renal
SNB-78 CNS = test system: SNB-78 CNS
MOLT-4 leukemia = test system: MOLT-4 leukemia
OVCAR-4 ovarian = test system: OVCAR-4 ovarian
HOP-18 NSCLC = test system: HOP-18 NSCLC
OVCAR-5 ovarian = test system: OVCAR-5 ovarian
XF 498 CNS = test system: XF 498 CNS
DMS 273 small cell lung = test system: DMS 273 small cell lung

Measured: TGI

COc1ccc(C2ON(c3ccccn3)CC=C2C)cc1 (centres undefined)
> 100 µM: all assays above
